In patent publication US9326515B2, “Fungicidal 3-[(1,3-thiazol-4-ylmethoxyimino)(phenyl)methyl]-2-substituted-1,2,4-oxadiazol-5(2H)-one derivatives” (BAYER INTELLECTUAL PROPERTY GMBH, priority 2011, dated 2016):

Key:
[1] = pH 2.7
Plasmopara viticola = assay: Example I: in vivo preventive test on Plasmopara viticola (grapevines); settings: 10 ppm of active ingredient, spray on young grapevine plants, inoculated after spray coating dried, evaluated 6 days after inoculation
Experimental: To produce a suitable preparation of active compound, 1 part by weight of active compound is mixed with the stated amounts of solvent and emulsifier, and the concentrate is diluted with water to the desired concentration.
To test for preventive activity, young plants are sprayed with the preparation of active compound at the stated rate of application. After the spray coating has dried on, the plants are inoculated with an aqueous spore suspension of Plasmopara viticola and then remain for 1 day in an incubation cabinet at approximately 20° C. and a relative atmospheric humidity of 100%. The plant is subsequently placed for 4 days in a greenhouse at approximately 21° C. and a relative atmospheric humidity of approximately 90%. The plants are then misted and placed for 1 day in an incubation cabinet.
The test is evaluated 6 days after the inoculation. 0% means an efficacy which corresponds to that of the untreated control, while an efficacy of 100% means that no disease is observed.

Phytophthora infestans = assay type: in vivo; settings: 100 ppm of active ingredient, spray on young tomato plants, inoculated one day after treatment, evaluated 7 days after inoculation
[2] = pH 2.7; remark: listed apart in the source

In the case of `Cn1oc(=O)nc1/C(=N\OCc1csc(NC(=O)Cc2ccc(Cl)cc2)n1)c1ccccc1` [Example 98, 2-(4-chlorophenyl)-N-{4-[({[(Z)-(2-methyl-5-oxo-2,5-dihydro-1,2,4-oxadiazol-3-yl)(phenyl)methylene]amino}oxy)methyl]-1,3-thiazol-2-yl}acetamide], the chromatographic logP [1] is reported as 3.23.
`CN(O)C(=N)/C(=N\OCc1csc(N)n1)c1ccccc1` [Example V-2, (2Z)-2-{[(2-amino-1,3-thiazol-4-yl)methoxy]imino}-N-hydroxy-N-methyl-2-phenylethanimidamide] gave a chromatographic logP [1] of 0.47.
For `[H]/N=C(/C(=N\OCc1csc(NC(=O)OCCc2ccccc2)n1)c1ccccc1)N(O)CC` [Example V-4, 2-phenylethyl (4-{[({(1Z,2Z)-2-[ethyl(hydroxy)amino]-2-imino-1-phenylethylidene}amino)oxy]methyl}-1,3-thiazol-2-yl)carbamate], the chromatographic logP [1] was 2.07.
For `Cn1oc(=O)nc1C(=NOCc1csc(NC(=O)COCc2ccccc2)n1)c1ccccc1` [Example 17], the Eff. % (Plasmopara viticola) was 94%, the Eff. % (Phytophthora infestans) was 100% and the LogP [2] was 3.06.
In the case of `Cn1oc(=O)nc1C(=NOCc1csc(NC(=O)C(C)(C)C)n1)c1ccccc1` [Example 3], the Eff. % (Phytophthora infestans) is reported as 84% and the LogP [2] is reported as 2.84.
With `CCCCCCC(=O)Nc1nc(CON=C(c2ccccc2)c2nc(=O)on2C)cs1` [Example 1] the Eff. % (Plasmopara viticola) was 90%, the Eff. % (Phytophthora infestans) was 87% and the LogP [2] was 3.55.
For `CN(O)C(=N)/C(=N\OCc1csc(Br)n1)c1ccccc1` [Example V-3, (2Z)-2-{[(2-bromo-1,3-thiazol-4-yl)methoxy]imino}-N-hydroxy-N-methyl-2-phenylethanimidamide], the chromatographic logP [1] was 1.34.
For `Cn1oc(=O)nc1C(=NOCc1csc(NC(=O)OC(C)(C)C)n1)c1ccccc1` [Example 20], the Eff. % (Plasmopara viticola) was 94%, the Eff. % (Phytophthora infestans) was 92% and the LogP [2] was 3.06.
With `Cn1oc(=O)nc1/C(=N\OCc1csc(N)n1)c1ccccc1` [Example 4, 3-[(Z)-{[(2-amino-1,3-thiazol-4-yl)methoxy]imino}(phenyl)methyl]-2-methyl-1,2,4-oxadiazol-5(2H)-one] the chromatographic logP [1] was 1.07.
In the case of `Cn1oc(=O)nc1C(=NOCc1csc(NC(=O)OCCc2ccccc2)n1)c1ccccc1` [Example 14], the Eff. % (Plasmopara viticola) is reported as 99%, the Eff. % (Phytophthora infestans) is reported as 95% and the LogP [2] is reported as 3.35.
`CCCCCCCC(=O)Nc1nc(CON=C(c2ccccc2)c2nc(=O)on2C)cs1` [Example 13] gave an Eff. % (Plasmopara viticola) of 99%, an Eff. % (Phytophthora infestans) of 95% and a LogP [2] of 3.94.
Work on `Cn1oc(=O)nc1C(=NOCc1csc(NC(=O)COc2ccccc2)n1)c1ccccc1` [Example 8] yielded an Eff. % (Plasmopara viticola) of 97%, an Eff. % (Phytophthora infestans) of 95% and a LogP [2] of 2.98.
For `Cn1oc(=O)nc1C(=NOCc1csc(NC(=O)C2CCc3ccccc3C2)n1)c1ccccc1` (stereo not drawn) [Example 26], the Eff. % (Plasmopara viticola) was 94%, the Eff. % (Phytophthora infestans) was 92% and the LogP [2] was 3.55.
Compound `CC(Oc1ccccc1)C(=O)Nc1nc(CON=C(c2ccccc2)c2nc(=O)on2C)cs1` (stereo not drawn) [Example 2] has an Eff. % (Plasmopara viticola) of 97%, an Eff. % (Phytophthora infestans) of 97% and a LogP [2] of 3.15.
Compound `CCCCC(CC)COC(=O)Nc1nc(CON=C(c2ccccc2)c2nc(=O)on2C)cs1` (stereo not drawn) [Example 7] has an Eff. % (Phytophthora infestans) of 85% and a LogP [2] of 4.56.
`Cn1oc(=O)nc1/C(=N\OCc1csc(Br)n1)c1ccccc1` [Example 99, 3-[(Z)-{[(2-bromo-1,3-thiazol-4-yl)methoxy]imino}(phenyl)methyl]-2-methyl-1,2,4-oxadiazol-5(2H)-one] showed a chromatographic logP [1] of 2.68.
For `Cn1oc(=O)nc1C(=NOCc1csc(NC(=O)C2(C)CC2)n1)c1ccccc1` [Example 16], the Eff. % (Plasmopara viticola) was 91%, the Eff. % (Phytophthora infestans) was 97% and the LogP [2] was 2.66.
For `CCN(O)C(=N)/C(=N\OCc1csc(NC(=O)COc2ccccc2)n1)c1ccccc1` [Example V-1], the LogP [2] was 2.42.
Work on `Cn1oc(=O)nc1/C(=N\OCc1csc(NC(=O)OCc2ccccc2)n1)c1ccccc1` [Example 96] yielded a LogP [2] of 3.17.
Work on `COc1ccc(CC(=O)Nc2nc(CON=C(c3ccccc3)c3nc(=O)on3C)cs2)cc1` [Example 70] yielded a LogP [2] of 2.80.
`C=CCC(C)OC(=O)Nc1nc(CON=C(c2ccccc2)c2nc(=O)on2C)cs1` (stereo not drawn) [Example 76] showed a LogP [2] of 3.15.
For `Cn1oc(=O)nc1C(=NOCc1csc(NC(=O)Cc2cccs2)n1)c1ccccc1` [Example 75], the LogP [2] was 2.71.
Work on `Cn1oc(=O)nc1C(=NOCc1csc(NC(=O)C2CCCCC2)n1)c1ccccc1` [Example 90] yielded a LogP [2] of 3.19.
With `COc1cccc(C(=NOCc2csc(NC(=O)CC3CCCC3)n2)c2nc(=O)on2C)c1` [Example 86] the LogP [2] was 3.25.
Compound `COc1cccc(/C(=N/OCc2csc(NC(=O)C(C)(C)Oc3ccccc3)n2)c2nc(=O)on2C)c1` [Example 36] has a LogP [2] of 3.63.
Compound `C#CCCCC(=O)Nc1nc(CO/N=C(/c2ccccc2)c2nc(=O)on2C)cs1` [Example 40] has a LogP [2] of 2.54.
For `C=CCCCCOC(=O)Nc1nc(CON=C(c2ccccc2)c2nc(=O)on2C)cs1` [Example 64], the LogP [2] was 3.51.
Compound `CCn1oc(=O)nc1/C(=N\OCc1csc(NC(=O)OCCc2ccccc2)n1)c1ccccc1` [Example 37] has a LogP [2] of 3.55.
In the case of `C=C(C)COC(=O)Nc1nc(CO/N=C(/c2ccccc2)c2nc(=O)on2C)cs1` [Example 94], the LogP [2] is reported as 2.92.
In the case of `Cn1oc(=O)nc1/C(=N\OCc1csc(NC(=O)OCCC2CCCC2)n1)c1ccccc1` [Example 52], the LogP [2] is reported as 3.96.
`CC(C)[C@@H]1CC[C@@H](C)C[C@H]1OC(=O)Nc1nc(CO/N=C(/c2ccccc2)c2nc(=O)on2C)cs1` [Example 50] showed a LogP [2] of 4.91.
`Cn1oc(=O)nc1C(=NOCc1csc(NC(=O)OC2CC3CCC2C3)n1)c1ccccc1` (stereo not drawn) [Example 6] showed an Eff. % (Phytophthora infestans) of 90% and a LogP [2] of 3.60.
With `CC(CC1CC1)OC(=O)Nc1nc(CON=C(c2ccccc2)c2nc(=O)on2C)cs1` (stereo not drawn) [Example 80] the LogP [2] was 3.42.
Work on `Cn1oc(=O)nc1C(=NOCc1csc(NC(=O)OCCCC2CCCCC2)n1)c1ccccc1` [Example 83] yielded a LogP [2] of 4.71.
Compound `Cn1oc(=O)nc1/C(=N\OCc1csc(NC(=O)OC(C)(C)C(Cl)(Cl)Cl)n1)c1ccccc1` [Example 51] has a LogP [2] of 3.96.
`Cn1oc(=O)nc1C(=NOCc1csc(NC(=O)OCC2CCCCC2)n1)c1ccccc1` [Example 63] showed a LogP [2] of 3.92.
For `Cn1oc(=O)nc1/C(=N\OCc1csc(NC(=O)OCCCCl)n1)c1ccccc1` [Example 93], the LogP [2] was 2.80.
`CCCCCC(=O)Nc1nc(CON=C(c2ccccc2)c2nc(=O)on2C)cs1` [Example 12] showed an Eff. % (Plasmopara viticola) of 94%, an Eff. % (Phytophthora infestans) of 92% and a LogP [2] of 3.19.
`CC(C(=O)Nc1nc(CO/N=C(/c2ccccc2)c2nc(=O)on2C)cs1)c1ccccc1` (racemic) [Example 49] gave a LogP [2] of 3.15.
`Cn1oc(=O)nc1C(=NOCc1csc(NC(=O)OCC#Cc2ccccc2)n1)c1ccccc1` [Example 73] gave a LogP [2] of 3.44.
In the case of `Cn1oc(=O)nc1/C(=N\OCc1csc(NC(=O)OCCC2CCCCC2)n1)c1ccccc1` [Example 45], the LogP [2] is reported as 4.21.
For `COCCn1oc(=O)nc1/C(=N\OCc1csc(NC(=O)OCCc2ccccc2)n1)c1ccccc1` [Example 39], the LogP [2] was 3.55.
For `CCCCOC(=O)Nc1nc(CO/N=C(/c2ccccc2)c2nc(=O)on2C)cs1` [Example 59], the LogP [2] was 3.13.
With `Cc1ccc(OC(C)C(=O)Nc2nc(CON=C(c3ccccc3)c3nc(=O)on3C)cs2)cc1` (stereo not drawn) [Example 27] the Eff. % (Plasmopara viticola) was 96%, the Eff. % (Phytophthora infestans) was 95% and the LogP [2] was 3.46.
For `C#CCC(C)OC(=O)Nc1nc(CON=C(c2ccccc2)c2nc(=O)on2C)cs1` (stereo not drawn) [Example 10], the Eff. % (Plasmopara viticola) was 88%, the Eff. % (Phytophthora infestans) was 93% and the LogP [2] was 2.80.
In the case of `C#CCCOC(=O)Nc1nc(CON=C(c2ccccc2)c2nc(=O)on2C)cs1` [Example 11], the Eff. % (Plasmopara viticola) is reported as 78%, the Eff. % (Phytophthora infestans) is reported as 70% and the LogP [2] is reported as 2.56.
In the case of `Cc1cccc(C(=O)Nc2nc(CON=C(c3ccccc3)c3nc(=O)on3C)cs2)c1` [Example 68], the LogP [2] is reported as 3.19.
With `Cn1oc(=O)nc1/C(=N\OCc1csc(NC(=O)CCC2CCCCC2)n1)c1ccccc1` [Example 41] the LogP [2] was 3.92.
`Cn1oc(=O)nc1C(=NOCc1csc(NC(=O)c2csc3ccccc23)n1)c1ccccc1` [Example 89] gave a LogP [2] of 3.57.
For `Cn1oc(=O)nc1C(=NOCc1csc(NC(=O)SC(C)(C)C)n1)c1ccccc1` [Example 18], the Eff. % (Plasmopara viticola) was 93%, the Eff. % (Phytophthora infestans) was 97% and the LogP [2] was 3.44.
Compound `CC#CCCOC(=O)Nc1nc(CO/N=C(/c2ccccc2)c2nc(=O)on2C)cs1` [Example 54] has a LogP [2] of 2.80.
In the case of `Cn1oc(=O)nc1C(=NOCc1csc(NC(=O)c2ccccc2)n1)c1ccccc1` [Example 15], the Eff. % (Phytophthora infestans) is reported as 92% and the LogP [2] is reported as 2.88.
`Cc1cccc2c1OC(C(=O)Nc1nc(CON=C(c3ccccc3)c3nc(=O)on3C)cs1)CO2` (stereo not drawn) [Example 25] gave an Eff. % (Plasmopara viticola) of 96%, an Eff. % (Phytophthora infestans) of 92% and a LogP [2] of 3.42.
Compound `CCn1oc(=O)nc1/C(=N\OCc1csc(NC(=O)COc2ccccc2)n1)c1ccccc1` [Example 38] has a LogP [2] of 3.17.
Work on `CC(OC(=O)Nc1nc(CON=C(c2ccccc2)c2nc(=O)on2C)cs1)C(C)(C)C` (stereo not drawn) [Example 92] yielded a LogP [2] of 3.65.
For `CCCCC(C)C(=O)Nc1nc(CO/N=C(/c2ccccc2)c2nc(=O)on2C)cs1` (racemic) [Example 42], the LogP [2] was 3.42.
